Values of other authors, collected in publication PMC3117075 (Journal of medicinal chemistry, 2011).

Molecular target: BRCT(BRCA1) (Homo sapiens, UniProt P38398)
Conditions: previously reported value

Chain of BRCT(BRCA1) (P38398 1646-1859 limits assumed): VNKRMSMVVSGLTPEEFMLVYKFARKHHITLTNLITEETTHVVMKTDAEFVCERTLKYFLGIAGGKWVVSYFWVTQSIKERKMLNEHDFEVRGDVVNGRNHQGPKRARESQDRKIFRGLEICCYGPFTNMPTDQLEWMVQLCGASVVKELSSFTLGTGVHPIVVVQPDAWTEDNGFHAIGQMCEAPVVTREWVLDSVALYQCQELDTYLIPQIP

Question: For ISRSTpSPTFNKQT, which “ΔCp (change in heat capacity at constant pressure)” value is on record?
Answer: The value was -340 ± 30 cal mol-1 K-1.
